Assay results published in ChEMBL document CHEMBL1142256, “Phosphoramidate derivatives of hydroxysteroids as inhibitors of prostate-specific membrane antigen” (Bioorg Med Chem Lett, 2008).

Biological target: Glutamate carboxypeptidase 2 (Homo sapiens, UniProt Q04609)
Assay: Inhibition of human PSMA

Chain of Glutamate carboxypeptidase 2 (Q04609 whole entry): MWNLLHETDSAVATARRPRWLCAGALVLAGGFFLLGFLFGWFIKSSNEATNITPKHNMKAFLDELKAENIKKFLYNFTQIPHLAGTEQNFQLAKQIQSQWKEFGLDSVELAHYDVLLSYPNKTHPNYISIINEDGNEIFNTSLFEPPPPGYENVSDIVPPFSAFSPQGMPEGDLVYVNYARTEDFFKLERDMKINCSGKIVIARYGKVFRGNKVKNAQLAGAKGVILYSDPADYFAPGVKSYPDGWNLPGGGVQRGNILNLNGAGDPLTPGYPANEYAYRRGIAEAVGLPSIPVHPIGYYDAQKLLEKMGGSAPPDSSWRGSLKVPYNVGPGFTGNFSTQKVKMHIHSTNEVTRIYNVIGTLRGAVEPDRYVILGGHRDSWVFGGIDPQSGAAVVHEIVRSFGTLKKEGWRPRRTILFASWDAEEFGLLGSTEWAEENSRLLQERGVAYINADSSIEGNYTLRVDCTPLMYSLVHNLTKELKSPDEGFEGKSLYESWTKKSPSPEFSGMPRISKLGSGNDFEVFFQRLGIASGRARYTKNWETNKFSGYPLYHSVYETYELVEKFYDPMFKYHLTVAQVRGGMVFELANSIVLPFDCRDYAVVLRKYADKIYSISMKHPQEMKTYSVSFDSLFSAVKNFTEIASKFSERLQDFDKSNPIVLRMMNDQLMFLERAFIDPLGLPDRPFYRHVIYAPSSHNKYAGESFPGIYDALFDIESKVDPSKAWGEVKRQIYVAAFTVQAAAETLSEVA

Question: With C[C@]12CC[C@@H]3c4ccc(OCCCOP(=O)(O)N[C@@H](CCC(=O)O)C(=O)O)cc4CC[C@H]3[C@@H]1CCC2=O as the compound, how does the IC50 read?
Answer: Its IC50 is 140 nM.

Question: How did the IC50 turn out when CC(C)CCC[C@@H](C)[C@H]1CC[C@H]2[C@@H]3CCC4C[C@@H](OCCCOP(=O)(O)N[C@@H](CCC(=O)O)C(=O)O)CC[C@]4(C)[C@H]3CC[C@]12C (stereo partly specified) was run?
Answer: Its IC50 is 125 nM.

Question: C[C@]12CC[C@@H]3c4ccc(OC(=O)c5ccccc5)cc4CC[C@H]3[C@@H]1CC[C@@H]2OCCCOP(=O)(O)N[C@@H](CCC(=O)O)C(=O)O was tested. Which IC50 did it give?
Answer: Its IC50 is 572 nM.

Question: Which IC50 does the source give for C[C@]12CC[C@H](OP(=O)(O)N[C@@H](CCC(=O)O)C(=O)O)C[C@@H]1CC[C@@H]1[C@@H]2CC[C@]2(C)C(=O)CC[C@@H]12 here?
Answer: The IC50 was 569 nM.

Question: Which IC50 does the source give for C[C@]12CC[C@H](OCCCOP(=O)(O)N[C@@H](CCC(=O)O)C(=O)O)C[C@@H]1CC[C@@H]1[C@@H]2CC[C@]2(C)C(=O)CC[C@@H]12 here?
Answer: Its IC50 is 438 nM.

Question: With CC(C)CCC[C@@H](C)[C@H]1CC[C@H]2[C@@H]3CCC4C[C@@H](OP(=O)(O)N[C@@H](CCC(=O)O)C(=O)O)CC[C@]4(C)[C@H]3CC[C@]12C (stereo partly specified) as the compound, how does the IC50 read?
Answer: The IC50 was 435 nM.
